Here are results for twelve compounds from ChEMBL document CHEMBL4715809, “Design, synthesis, and biological activity of 4-(imidazo[1,2-b]pyridazin-3-yl)-1H-pyrazol-1-yl-phenylbenzamide derivatives as BCR-ABL kinase inhibitors” (Bioorg Med Chem Lett, 2016).

pIC50: −log10 of the molar value.

One series concerns the target Bcr/Abl fusion protein (Homo sapiens, UniProt P00519). Briefly: Inhibition of BCR (unknown origin)/recombinant human N-terminal His-tagged ABL1 (27 to end residues) expressed in baculovirus infected Sf9 cells using ABLtide as substrate preincubated for 30 mins followed by substrate addition and measured after 1 hr in presence of ATP by kinase-Glo luminescence assay. For orientation: Kinase-Glo measures the ATP left after a reaction by luminescence.

A further series deals with U-937. Briefly: Antiproliferative activity against human U937 cells assessed as reduction in cell viability after 24 hrs by CCK8 assay. In kind it is functional, cell-based. The conditions noted are these: U-937, 24 h.
Series [1] in a line: Cytotoxicity against human 293T cells assessed as reduction in cell viability after 24 hrs by CCK8 assay. In kind it is cell-based. The note with it: 293T (HEK-293T) cells. A general note: Tetrazolium dyes change colour on reduction, which living cells bring about.
The next series concerns K562. Put plainly: Antiproliferative activity against human K562 cells assessed as reduction in cell viability after 24 hrs by CCK8 assay. The class given is functional, cell-based. The note with it: K562, 24 h.
The target in series [2] is Bcr/Abl fusion protein (Homo sapiens) (UniProt P00519+P11274). Put plainly: Potency index, ratio of staurosporine IC50 to test compound IC50 for inhibition of BCR (unknown origin)/recombinant human N-terminal His-tagged ABL1 (27 to end residues) expressed in baculovirus infected Sf9 cells using ABLtide as substrate preincubated for 30 mins followed by substrate addition and measured after 1 hr in presence of ATP by kinase-Glo luminescence assay. The conditions noted are these: time 90.0 min.
Sequence of Bcr/Abl fusion protein (Homo sapiens) (P00519 whole entry, looked up, the tested form may be a part): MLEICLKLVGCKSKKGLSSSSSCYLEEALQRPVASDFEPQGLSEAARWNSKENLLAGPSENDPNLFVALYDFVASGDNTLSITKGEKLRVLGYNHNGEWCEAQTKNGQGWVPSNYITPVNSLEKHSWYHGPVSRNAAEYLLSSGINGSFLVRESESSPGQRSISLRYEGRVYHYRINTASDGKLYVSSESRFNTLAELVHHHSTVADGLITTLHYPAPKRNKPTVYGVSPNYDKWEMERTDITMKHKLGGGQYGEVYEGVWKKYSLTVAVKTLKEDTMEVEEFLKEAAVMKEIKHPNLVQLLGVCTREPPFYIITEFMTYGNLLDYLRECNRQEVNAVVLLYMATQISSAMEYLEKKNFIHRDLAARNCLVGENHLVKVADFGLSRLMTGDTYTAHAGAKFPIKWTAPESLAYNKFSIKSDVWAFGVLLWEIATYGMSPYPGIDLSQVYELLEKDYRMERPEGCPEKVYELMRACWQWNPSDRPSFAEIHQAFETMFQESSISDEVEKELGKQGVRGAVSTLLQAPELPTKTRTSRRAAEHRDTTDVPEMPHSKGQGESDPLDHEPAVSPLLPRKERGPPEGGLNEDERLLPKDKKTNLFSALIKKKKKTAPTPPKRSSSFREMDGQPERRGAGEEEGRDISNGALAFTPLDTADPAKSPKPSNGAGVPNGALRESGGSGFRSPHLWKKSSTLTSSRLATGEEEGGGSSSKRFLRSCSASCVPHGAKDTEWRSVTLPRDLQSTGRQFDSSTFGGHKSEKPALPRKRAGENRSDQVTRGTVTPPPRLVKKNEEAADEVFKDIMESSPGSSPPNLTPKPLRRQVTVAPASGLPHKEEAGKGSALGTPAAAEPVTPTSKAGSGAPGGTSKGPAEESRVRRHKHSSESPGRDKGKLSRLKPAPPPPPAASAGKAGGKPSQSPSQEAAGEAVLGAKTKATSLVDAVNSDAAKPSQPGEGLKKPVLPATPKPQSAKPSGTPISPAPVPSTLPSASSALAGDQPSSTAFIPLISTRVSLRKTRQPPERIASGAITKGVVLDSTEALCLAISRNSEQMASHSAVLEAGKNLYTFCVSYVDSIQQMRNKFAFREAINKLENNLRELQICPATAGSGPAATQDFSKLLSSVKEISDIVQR
Sequence of Bcr/Abl fusion protein (Homo sapiens) (P11274 whole entry, looked up, the tested form may be a part): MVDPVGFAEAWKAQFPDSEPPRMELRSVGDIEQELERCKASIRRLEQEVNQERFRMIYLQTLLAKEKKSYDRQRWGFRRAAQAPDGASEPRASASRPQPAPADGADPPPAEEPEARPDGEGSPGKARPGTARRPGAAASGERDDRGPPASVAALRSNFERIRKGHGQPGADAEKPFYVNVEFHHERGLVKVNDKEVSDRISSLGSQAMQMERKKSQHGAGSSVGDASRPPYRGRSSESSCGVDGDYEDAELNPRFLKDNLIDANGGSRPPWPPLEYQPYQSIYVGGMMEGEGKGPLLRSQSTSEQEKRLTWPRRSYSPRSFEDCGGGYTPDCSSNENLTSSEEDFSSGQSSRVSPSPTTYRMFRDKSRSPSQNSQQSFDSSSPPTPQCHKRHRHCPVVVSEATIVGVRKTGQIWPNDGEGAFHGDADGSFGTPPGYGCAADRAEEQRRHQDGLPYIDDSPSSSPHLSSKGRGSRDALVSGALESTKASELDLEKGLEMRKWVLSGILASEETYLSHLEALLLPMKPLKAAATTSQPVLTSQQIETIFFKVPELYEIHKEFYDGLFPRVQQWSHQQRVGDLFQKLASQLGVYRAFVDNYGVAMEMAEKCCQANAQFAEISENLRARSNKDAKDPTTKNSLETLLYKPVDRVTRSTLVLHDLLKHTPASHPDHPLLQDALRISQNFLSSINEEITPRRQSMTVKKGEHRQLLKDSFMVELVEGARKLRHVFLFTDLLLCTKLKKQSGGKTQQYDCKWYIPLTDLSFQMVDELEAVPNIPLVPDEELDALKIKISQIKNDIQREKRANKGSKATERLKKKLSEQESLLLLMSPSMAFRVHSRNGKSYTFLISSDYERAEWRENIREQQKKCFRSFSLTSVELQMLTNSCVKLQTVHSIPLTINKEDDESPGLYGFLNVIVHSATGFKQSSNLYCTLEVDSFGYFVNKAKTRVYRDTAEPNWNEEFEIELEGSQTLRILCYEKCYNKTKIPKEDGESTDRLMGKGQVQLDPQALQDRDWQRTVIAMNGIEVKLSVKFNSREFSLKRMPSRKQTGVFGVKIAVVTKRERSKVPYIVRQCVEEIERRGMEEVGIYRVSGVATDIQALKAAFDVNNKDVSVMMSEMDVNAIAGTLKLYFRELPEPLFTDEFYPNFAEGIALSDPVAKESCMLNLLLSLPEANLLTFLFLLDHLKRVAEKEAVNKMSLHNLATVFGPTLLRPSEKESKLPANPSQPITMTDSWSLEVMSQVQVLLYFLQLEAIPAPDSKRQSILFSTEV

The pIC50 is the IC50 on a negative log10 scale, so that one unit is a factor of ten. A word on the CC50: it is the concentration that lowers cell viability or growth by half.

Sequence of Bcr/Abl fusion protein (P00519 whole entry, the tested form may be a part): as the sequence (P00519 whole entry, looked up, the tested form may be a part) above
Sequence of Bcr/Abl fusion protein (P11274 whole entry, further chain, the tested form may be a part): as the sequence (P11274 whole entry, looked up, the tested form may be a part) above

`Cc1ccc(NC(=O)c2ccc(CN3CCOCC3)cc2)cc1-n1cc(-c2cnc3ccnn3c2)cn1`: the pIC50 at Bcr/Abl fusion protein is 5.61.
For `Cc1ccc(NC(=O)c2ccc(C(F)(F)F)cc2)cc1-n1cc(-c2cnc3ccnn3c2)cn1`, the pIC50 was 6.09 on Bcr/Abl fusion protein, 4.88 in the series with U-937 and 5.16 in the series with K562. The CC50 at 24 h in series [1] is 43.2 µM.
With `Cc1ccc(NC(=O)c2cccc(Cl)c2)cc1-n1cc(-c2cnc3cccnn23)cn1`, the pIC50 at Bcr/Abl fusion protein is 7.65; in the series with U-937 it was less than 4.70; in the series on K562, 5.29. Also, the CC50 at 24 h in series [1] is more than 80 µM.
On to `Cc1ccc(NC(=O)c2ccc(CN3CCCN(C)CC3)cc2)cc1-n1cc(-c2cnc3ccnn3c2)cn1`, for which the values for the pIC50 at Bcr/Abl fusion protein, in the series with U-937 and in the series with K562 were 6.21, 5.17 and 5.23, respectively. Also, the cytotoxic concentration (CC50) at 24 h in series [1] turned out to be 20.5 µM.
For the compound `Cc1ccc(NC(=O)c2ccc(CN3CCOCC3)cc2)cc1-n1cc(-c2cnc3cccnn23)cn1`, the negative-log IC50 (pIC50) at Bcr/Abl fusion protein was 6.96; in the series with U-937, 4.91; with K562 it was 5.08. Moreover, the CC50 at 24 h in series [1] is 9.04 µM.
Regarding `Cc1ccc(NC(=O)c2ccc(CN3CCN(C)CC3)cc2)cc1Nc1nccc(-c2cccnc2)n1` [IMATINIB], the results for the pIC50 with U-937 and in the series on K562 were 4.91 and 5.13, respectively. In addition, in series [1], the CC50 at 24 h amounted to 27.5 µM.
With `Cc1ccc(NC(=O)c2ccc(F)cc2)cc1-n1cc(-c2cnc3cccnn23)cn1`, the pIC50 at Bcr/Abl fusion protein was 7.09; with U-937 it was less than 4.70; in the series on K562 it was 4.91. For the same compound, the CC50 at 24 h in series [1] was more than 80 µM.
On the same counts, the results for `Cc1ccc(NC(=O)c2ccc(CN3CCN(C)CC3)cc2)cc1-n1cc(-c2cnc3cccnn23)cn1` are 7.58, 4.97, more than 8.70 and 23.8 µM.
The like results for `CCc1ccc(C(=O)Nc2ccc(C)c(-n3cc(-c4cnc5cccnn45)cn3)c2)cc1` were, in that order, 7.71, less than 4.70, 5.12 and more than 80 µM.
On the same counts, the results for `COc1ccc(C(=O)Nc2ccc(C)c(-n3cc(-c4cnc5ccnn5c4)cn3)c2)cc1` are 6.12, 4.79, 4.71 and more than 80 µM.
For the compound `Cc1ccc(NC(=O)c2ccc(C(F)(F)F)cc2)cc1-n1cc(-c2cnc3cccnn23)cn1`, the pIC50 on Bcr/Abl fusion protein was 7.13; in the series with U-937, less than 4.70; in the series with K562, 4.98. The CC50 at 24 h in series [1] was more than 80 µM.
`Cc1ccc(NC(=O)c2cccc(C(F)(F)F)c2)cc1-n1cc(-c2cnc3cccnn23)cn1`: the pIC50 on Bcr/Abl fusion protein is 8.07; with U-937, 4.86; in the series on K562 it was more than 8.70. For the same compound, the Ratio IC50 in series [2] was determined as 14.3. The half-maximal cytotoxic concentration (CC50) at 24 h in series [1] stood at 40.3 µM.
